Literature values in publication PMC5007443, “TNIK inhibition abrogates colorectal cancer stemness” (Nature Communications, 2016).
pIC50: −log10 of the molar value.

Experiments:
Wnt signal = tested on: Wnt signal; design: method as in PMID 23232060; details: read-out: IC50, Wnt signal-inhibitory effects; cited from earlier work
TNIK = tested on: TNIK; design: method as in PMID 23232060; details: read-out: IC50, enzyme activity of TNIK; cited from earlier work
lung cancer cells = tested on: lung cancer cells; design: method as in PMID 25337707; details: cited from earlier work

COc1ccc(C#N)cc1-c1ccnc(Nc2ccc(N3CCOCC3)c(OC)c2)c1 [Compound 9, 4-methoxy-3-(2-(3-methoxy-4-morpholinophenylamino)pyridin-4-yl)benzonitrile]
pIC50 (Wnt signal): < 5.70
pIC50 (TNIK): 8.10

Cc1ccc(C(=O)Nc2sc(Nc3ccccc3)nc2C(N)=O)cc1 [NCB-0005]
EMT of lung cancer cells induced by TGF-β1 (lung cancer cells): inhibit
